Assays:
[1] = target: T1, Glut1 (Homo sapiens, UniProt P11166); assay: Bidirectional transport assay in the human in vitro BBB model, Glut1 substrate; format: in vitro ADME; conditions: 2-NBDG 100 μg/ml
T1 construct: endogenous in cells; host or cells: HBMEC/ci18 co-cultured with HBPC/ci37 and HASTR/ci35 (transwell)
T1 sequence (P11166 1-492): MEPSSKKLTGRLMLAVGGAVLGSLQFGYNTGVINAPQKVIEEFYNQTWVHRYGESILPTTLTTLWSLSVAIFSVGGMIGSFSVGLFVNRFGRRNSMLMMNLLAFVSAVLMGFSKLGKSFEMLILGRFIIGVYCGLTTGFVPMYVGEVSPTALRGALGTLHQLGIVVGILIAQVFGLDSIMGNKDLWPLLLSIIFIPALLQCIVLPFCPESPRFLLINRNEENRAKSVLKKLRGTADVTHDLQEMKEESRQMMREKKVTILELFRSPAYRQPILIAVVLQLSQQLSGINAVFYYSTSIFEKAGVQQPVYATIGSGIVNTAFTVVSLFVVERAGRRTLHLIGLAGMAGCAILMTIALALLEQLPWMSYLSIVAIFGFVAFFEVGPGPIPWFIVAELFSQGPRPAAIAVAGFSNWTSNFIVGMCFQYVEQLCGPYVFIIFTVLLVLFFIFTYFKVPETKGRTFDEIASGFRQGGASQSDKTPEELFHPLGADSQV
Protocol: (§1) In vitro human BBB models were developed by combining three immortalized cell lines). Briefly, HBPC/ci37 cells were seeded on the bottom side of the collagen IV- and Fibronectin-coated polycarbonate membrane of a transwell insert (Millicell cell culture insert 24-well hanging inserts, 0.4 μm […]; Merck, Darmstadt, Germany) at a density of 1.0 × 10^4 cells/insert. The cells were then cultured for 1 day to allow them to attach firmly. HASTR/ci35 cells were seeded (5.0 × 10^4 cells/well) on collagen I-coated 24-well plates (Greiner Bio-one, Frickenhausen, Germany) and maintained in astrocyte culture medium. HBPC/ci37 cells were induced to differentiate by replacing the pericyte medium with pericyte differentiation medium, which was consisted of FBS- and blasticidin S-free pericyte medium; HASTR/ci35 cells were induced to differentiate by replacing the astrocyte culture medium with astrocyte differentiation medium, which was consisted of FBS- and blasticidin S-free astrocyte growth medium supplemented with 1 mM adenosine 3′,5′-cyclic monophosphate sodium salt monohydrate. After the differentiation media were added, both cell lines were cultured at 37 °C for 24 h. To start a coculture, HBMEC/ci18 cells were seeded on the inner side of the HBPC/ci37 cell culture insert at a density of 1.0 × 10^5 cells. […]

[2] = Permeability assay with permeable and nonpermeable compounds in the human in vitro BBB model; conditions: human
Protocol: as §1

[3] = system: human in vitro BBB model (HBMEC/ci18, HBPC/ci37, HASTR/ci35); assay: as above
Protocol: as §1

In the case of `O=[N+]([O-])c1ccc(N[C@H]2C(O)O[C@H](CO)[C@@H](O)[C@@H]2O)c2nonc12` (stereo partly shown) [2-NBDG], the “Efflux Ratio Mean” value ([1]; mean of 4 independent experiments) is reported as 1.1 and the “Efflux Ratio (Pe (B to A)/Pe (A to B))” value ([1]; single independent experiment) is reported as 1.01.
`Cn1c(=O)c2c(ncn2C)n(C)c1=O` [caffeine] showed a Papp at 5 μM [2] of 1160 ± 492 ×10⁻⁶ cm/s.
For Lucifer Yellow, the “Pe value (permeability coefficient)” value [3] was 90.2 ± 23.1 × 10^−6 cm/s.
